Usually ED50 stands for the midpoint of the dose-response relation. In general, IC50 refers to the point on the concentration scale where inhibition reaches its midpoint. Read a low IC50 as higher potency.

In one experiment the test system is PAF-induced hypotension. The experiment in a line: reversal of hypotension caused by an infusion of PAF in rats. In kind it is in vivo, Male Sprague-Dawley rats. The note with it: iv; i.v. bolus; PAF 100 ng/kg/min infused i.v.; anaesthetised rat; read-out: inhibition of PAF-induced hypotension in the rat, ED50 (dose to cause a 50% reversal of the hypotensive PAF response). As for the experimental part: Male Sprague-Dawley rats (300-350 g) were anaesthetised with a mixture of sodium pentobarbitone, 22.5 mg/kg and thiopental 62.5 mg/kg. Through a midline incision in the neck, the trachea was cannulated and the animals breathed spontaneously. A carotid artery was cannulated for the measurement of blood pressure and this signal was used to trigger a rate meter to measure heart rate. Both jugular veins were cannulated: one for the infusion of PAF and the other for the bolus administration of test compounds.
PAF, 100 ng/kg/min was infused i.v. until a sustained fall in mean blood pressure of 50 mmHg was achieved. […] The peak of this reversal was measured and the dose to cause a 50% reversal of the hypotensive PAF response (ED50) calculated by straight line interpolation and the results are presented in Table 2.

Experiment [1] addresses T1, platelet activating factor (PAF) receptor (human platelet plasma membrane) (Homo sapiens, UniProt P25105).
T1 construct: Platelet concentrates were obtained from a hospital blood bank; from tissue; host or cells: human platelets (hospital blood bank concentrates), lysed plasma membrane preparation
The experiment in a line: inhibition of [^3 H]-PAF receptor binding to human platelet plasma membrane. The note with it: [^3 H]-PAF 0.5 nM, 0° C., 1 hour, pH 7.0. The procedure:
The inhibition of [^3 H]-PAF binding to human platelet plasma membrane by compounds of general formula I was determined by isotopic labelling and filtration techniques. Platelet concentrates were obtained from a hospital blood bank. These platelet concentrates (500-2500 ml.) were centrifuged at 800 rpm for 10 minutes in a SORVALL RC3B centrifuge to remove the red blood cells present. (The word SORVALL is a trade mark.) The supernatant was subsequently centrifuged at 3,000 rpm in a SORVALL RC3B centrifuge to pellet the platelets present. The platelet rich pellets were resuspended in a minimum volume of buffer (150 mM NaCl, 10 mM Tris, 2 mM EDTA, pH 7.5) and layered onto Ficoll-Paque gradients, 9 ml platelet concentrate to 2 ml Ficoll, and centrifuged at 1,900 rpm for 15 minutes in a SORVALL RT6000 centrifuge. This step removes the residual red blood cells and other nonspecific material such as lymphocytes from the preparation. The platelets which form a band between the plasma and the Ficoll were removed, resuspended in the above buffer and centrifuged at 3,000 rpm for 10 minutes in a SORVALL RT6000 centrifuge. The pelleted platelets were resuspended in buffer (10 mM Tris, 5 mM MgCl2, 2 mM EDTA, pH 7.0), snap freezed in liquid N2 and allowed to thaw slowly at room temperature in order to lyse the platelets. The latter step was repeated at least 3 times to ensure proper lysis. The lysed platelets were centrifuged at 3,000 rpm for 10 minutes in a SORVALL RT6000 centrifuge and resuspended in buffer. The latter step was repeated twice in order to remove any cytoplasmic proteins which may hydrolyse the platelet activating factor (PAF) receptor. The prepared platelet membranes may be stored at -70° C. After thawing the prepared membranes were centrifuged in a SORVALL RT6000 at 3,000 rpm for 10 minutes and resuspended in assay buffer.
The assay was conducted by preparing a series of Tris-buffered solutions of the selected antagonist of predetermined concentrations. Each of these solutions contained [^3 H]-PAF (0.5 nM; 1-O-[^3 H]octadecyl-2-acetyl-sn-glycero-3-phosphoryl choline with a specific activity of 132 Ci/mmol), unlabelled PAF (1000 nM), a known amount of the test antagonist, and a sufficient amount of Tris-buffer solution (10 mM Tris, 5 mM MgCl2, pH 7.0, 0.25% BSA) to make the final volume 1 ml. Incubation was initiated by the addition of 100 μg of the isolated membrane fraction to each of the above solutions at 0° C. Two control samples, one (C1 ) which contained all the ingredients described above except the antagonist and the other (C2) contains C1 plus a 1000-fold excess of unlabelled PAF, were also prepared and incubated simultaneously with the test samples.
After 1 hour incubation, each solution was filtered rapidly under vacuo through a WHATMAN GF/C glass fibre filter in order to separate unbound PAF from bound PAF. (The word WHATMAN is a trade mark.) The residue in each case was rapidly washed 4 times with 5 ml cold (4° C.) Tris-buffer solution. Each washed residue was dried under vacuum on a sampling manifold and placed into vials containing 20 ml of OPTIPHASE MP scintillation fluid and the radioactivity counted in a liquid scintillation counter. (The word OPTIPHASE is a trade mark.) Defining the counts for total binding with antagonist from a test sample as "TBA"; the counts for total binding from the control sample C1 as "TB"; and the counts for nonspecific binding from the control sample C2 as "NSB", the percent inhibition of each test antagonist can be determined by the following equation:
Inhibition=[(TB-TBA)/SB]×100
where the specific binding SB=TB-NSB
Table 1 lists results from this assay for inhibition of [^3 H]-PAF receptor binding for illustrative examples of the compounds of this invention. […]

For experiment [2], the system named is platelet activating factor. The experiment in a line: antagonism of platelet activating factor (statement in words).

T1 sequence (P25105 whole entry): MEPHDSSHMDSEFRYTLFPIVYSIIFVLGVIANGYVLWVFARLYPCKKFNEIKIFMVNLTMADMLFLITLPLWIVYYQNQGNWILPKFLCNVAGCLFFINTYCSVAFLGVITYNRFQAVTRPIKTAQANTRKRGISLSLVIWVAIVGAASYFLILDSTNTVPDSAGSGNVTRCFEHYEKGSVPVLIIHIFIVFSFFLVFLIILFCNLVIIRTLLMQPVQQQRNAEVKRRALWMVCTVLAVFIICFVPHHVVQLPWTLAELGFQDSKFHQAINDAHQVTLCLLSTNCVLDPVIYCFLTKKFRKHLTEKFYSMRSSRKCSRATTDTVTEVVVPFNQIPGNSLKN

As to `CN(C(=O)c1ccc(Cn2cnc3cnccc32)cc1)C1CCCCC1` [Comparative Example, N-Cyclohexyl-N-methyl-4-(1H-imidazo[4,5-c]pyridinylmethyl)benzamide, reference compound], the median effective dose (ED50) in the experiment on PAF-induced hypotension turned out to be 150 µg/kg.

`Cc1nc2cnccc2n1Cc1ccc(S(=O)(=O)N(C)[C@H](CO)CC(C)C)cc1` [Example 1, N-Methyl-N-4-(1H-2-methylimidazo[4,5-c]pyridinylmethyl)phenylsulphonyl-L-leucinol] returned an IC50 in experiment [1] of 7 nM. This counts as single-digit nanomolar.

The compound `CCCCCCCCCCCCCCCCCC(=O)OC[C@H](CC(C)C)N(C)S(=O)(=O)c1ccc(Cn2c(C)nc3cnccc32)cc1` [Example 44, O-Octadecanoyl-N-methyl-N-4-(1H-2-methylimidazo[4,5-c]pyridinylmethyl)phenylsulphonyl-L-leucinol] showed an IC50 in experiment [1] of 1 nM. In addition, the median effective dose (ED50) with PAF-induced hypotension was 4.6 µg/kg.

With `CCC(=O)OC[C@H](CC(C)C)N(C)S(=O)(=O)c1ccc(Cn2c(C)nc3cnccc32)cc1` [Example 45, O-Propanoyl-N-methyl-N-4-(1H-2-methylimidazo[4,5-c]pyridinylmethyl)phenylsulphonyl-L-leucinol], in experiment [1], the IC50 came to 0.5 nM.

Consider `CCOC(=O)C(=O)OC[C@H](CC(C)C)N(C)S(=O)(=O)c1ccc(Cn2c(C)nc3cnccc32)cc1` [Example 47, O-Ethyloxaloyl-N-methyl-N-4-(1H-2-methylimidazo[4,5-c]pyridinylmethyl)phenylsulphonyl-L-leucinol], for which the half-maximal inhibitory concentration (IC50) in experiment [1] is 2 nM.

With `CC(=O)Oc1ccccc1C(=O)OC[C@H](CC(C)C)N(C)S(=O)(=O)c1ccc(Cn2c(C)nc3cnccc32)cc1` [Example 49, O-2-Acetoxybenzoyl-N-methyl-N-4-(1H-2-methylimidazo[4,5-c]pyridinylmethyl)phenylsulphonyl-L-leucinol], the half-maximal inhibitory concentration (IC50) in experiment [1] worked out at 2 nM. Besides, the 50% effective dose (ED50) in the experiment with PAF-induced hypotension is 2.2 µg/kg.

Consider `COc1ccc(SCC(=O)OC[C@H](CC(C)C)N(C)S(=O)(=O)c2ccc(Cn3c(C)nc4cnccc43)cc2)cc1OC` [Example 78, O-2-(3,4-Dimethoxyphenylmercapto)ethanoyl-N-methyl-N-4-(1H-2-methylimidazo[4,5-c]pyridinylmethyl)phenylsulphonyl-L-leucinol], for which the median effective dose (ED50) in the experiment on PAF-induced hypotension turned out to be 5.8 µg/kg.

In the case of `CC1=C(/C=C/C(C)=C/C=C/C(C)=C/C(=O)OC[C@H](CC(C)C)N(C)S(=O)(=O)c2ccc(Cn3c(C)nc4cnccc43)cc2)C(C)(C)CCC1` [Example 79, O-Retinoyl-N-methyl-N-4-(1H-2-methylimidazo[4,5-c]pyridinylmethyl)phenylsulphonyl-L-leucinol], in experiment [1], the IC50 was found to be 4 nM.

Consider `Cc1nc2cnccc2n1Cc1ccc(S(=O)(=O)N(C)[C@H](COC(=O)NCc2ccccn2)CC(C)C)cc1` [Example 108, O-Pyridin-2-ylmethylaminocarbonyl-N-methyl-N-4-(1H-2-methylimidazo[4,5-c]pyridinylmethyl)phenylsulphonyl-L-leucinol], for which, in the experiment on PAF-induced hypotension, the ED50 was 6.6 µg/kg.

`CCCCCCCCCCCCCCCCCCNC(=O)OC[C@H](CC(C)C)N(C)S(=O)(=O)c1ccc(Cn2c(C)nc3cnccc32)cc1` [Example 109, O-Octadecylaminocarbonyl-N-methyl-N-4-(1H-2-methylimidazo[4,5-c]pyridinylmethyl)phenylsulphonyl-L-leucinol] yielded an IC50 in experiment [1] of 3 nM.

In turn, `Cc1noc([C@H](CC(C)C)N(C)S(=O)(=O)c2ccc(Cn3c(C)nc4cnccc43)cc2)n1` [Example 155, N-Methyl-N-4-(1H-2-methylimidazo[4,5-c]pyridinylmethyl)phenylsulphonyl-1-(3-methyl-1,2,4-oxadiazol-5-yl)-3-methylbutylamine] showed a half-maximal inhibitory concentration (IC50) in experiment [1] of 2 nM.

For `CCc1noc([C@H](CC(C)C)N(C)S(=O)(=O)c2ccc(Cn3c(C)nc4cnccc43)cc2)n1` [Example 156, N-Methyl-N-4-(1H-2-methylimidazo[4,5-c]pyridinylmethyl)phenylsulphonyl-1-(3-ethyl-1,2,4-oxadiazol-5-yl)-3-methylbutylamine], in the experiment with PAF-induced hypotension, the 50% effective dose (ED50) stood at 0.6 µg/kg.

With `Cc1nc2ccncc2n1Cc1ccc(S(=O)(=O)N(C)Cc2cccs2)cc1` [N-methyl-N-4-(3 H-2-methylimidazo[4,5-c]pyridinylmethyl)phenylsulphonyl-2-thienylmethylamine], in experiment [2], the “antagonism of platelet activating factor (in words)” value was “are antagonists of platelet activating factor”.

In the case of `Cc1nc2ccn(Cc3ccc(S(=O)(=O)N(C)Cc4cccs4)cc3)cc-2n1` [N-methyl-N-4-(5H-2-methylimidazo[4,5-c]pyridinylmethyl)phenylsulphonyl-2-thienylmethylamine], the “antagonism of platelet activating factor (in words)” value in experiment [2] was “are antagonists of platelet activating factor”.

(Values after US5516783A, “4-(1H-2-methylimidazo[4,5-c]pyridinylmethyl)phenylsulphonamide derivatives as antagonist of PAF” (British Biotech Pharmaceuticals Limited, priority 1992, dated 1996).)
